Data set [1] in a line: Ratio of binding affinity towards E-coli beta - galactosidase to that of km/kcat was determined.
The nature of data set [2]: Ratio of binding affinity towards E-coli beta - galactosidase to that of Michaelis-Menten constant against E-coli beta-galactosidase.
The target of data set [3] is T1, Beta-galactosidase (Escherichia coli, UniProt Q8VNN2). Nature of the data set: Compound was evaluated for its binding affinity towards Beta-galactosidase.
The target in data set [4] is T2, Beta-glucosidase (Prunus avium) (UniProt Q43014).
T2 sequence (whole entry): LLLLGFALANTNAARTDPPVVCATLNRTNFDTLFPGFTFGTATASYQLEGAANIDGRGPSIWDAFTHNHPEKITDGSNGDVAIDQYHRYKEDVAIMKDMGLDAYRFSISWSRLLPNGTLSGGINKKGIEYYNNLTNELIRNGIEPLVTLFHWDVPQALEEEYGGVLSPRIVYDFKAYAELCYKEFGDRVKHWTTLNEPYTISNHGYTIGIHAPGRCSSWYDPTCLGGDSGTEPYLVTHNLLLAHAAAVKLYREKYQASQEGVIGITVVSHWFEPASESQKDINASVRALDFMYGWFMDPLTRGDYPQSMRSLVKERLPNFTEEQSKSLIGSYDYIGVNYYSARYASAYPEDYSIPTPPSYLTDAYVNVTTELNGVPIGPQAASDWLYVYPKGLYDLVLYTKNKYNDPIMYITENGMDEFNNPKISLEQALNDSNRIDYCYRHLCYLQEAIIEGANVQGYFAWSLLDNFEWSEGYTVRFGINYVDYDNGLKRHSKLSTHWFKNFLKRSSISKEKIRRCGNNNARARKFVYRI
As to the kind of experiment: (§1) Kinetic parameter Km/Kcat against Beta-glucosidase. Set-up: unit not given here. As to conditions: Prunus dulcis.

Data set [5] deals with T1, Beta-galactosidase. As to the kind of experiment: Compound was evaluated for its binding affinity towards E-coli Beta-galactosidase.
In data set [6] the target is T2, Beta-glucosidase (Prunus avium). The data set is described as §1. As to conditions: Prunus dulcis.
Substrate in data set [7]: OC[C@H]1OC[C@@H](O)[C@@H]1O
Nature of the data set: (§2) Michaelis-Menten constant against sweet almond Beta-glucosidase.

Substrate in data set [8]: OC[C@H]1OC[C@H](O)[C@@H](O)[C@@H]1O
The data set is described as §2.

Substrate in data set [9]: O[C@H]1[C@H](O)COC[C@@H]1O
Described as §2.

Substrate in data set [10]: OC[C@H]1OC[C@@H](O)[C@H]1O
The description is as §2.

Substrate in data set [11]: O[C@@H]1COC[C@H]1O
The description is as §2.

Substrate in data set [12]: OC[C@H]1OC[C@H](O)[C@@H](O)[C@H]1O
Described as §2.

T1 sequence (Q8VNN2 whole entry): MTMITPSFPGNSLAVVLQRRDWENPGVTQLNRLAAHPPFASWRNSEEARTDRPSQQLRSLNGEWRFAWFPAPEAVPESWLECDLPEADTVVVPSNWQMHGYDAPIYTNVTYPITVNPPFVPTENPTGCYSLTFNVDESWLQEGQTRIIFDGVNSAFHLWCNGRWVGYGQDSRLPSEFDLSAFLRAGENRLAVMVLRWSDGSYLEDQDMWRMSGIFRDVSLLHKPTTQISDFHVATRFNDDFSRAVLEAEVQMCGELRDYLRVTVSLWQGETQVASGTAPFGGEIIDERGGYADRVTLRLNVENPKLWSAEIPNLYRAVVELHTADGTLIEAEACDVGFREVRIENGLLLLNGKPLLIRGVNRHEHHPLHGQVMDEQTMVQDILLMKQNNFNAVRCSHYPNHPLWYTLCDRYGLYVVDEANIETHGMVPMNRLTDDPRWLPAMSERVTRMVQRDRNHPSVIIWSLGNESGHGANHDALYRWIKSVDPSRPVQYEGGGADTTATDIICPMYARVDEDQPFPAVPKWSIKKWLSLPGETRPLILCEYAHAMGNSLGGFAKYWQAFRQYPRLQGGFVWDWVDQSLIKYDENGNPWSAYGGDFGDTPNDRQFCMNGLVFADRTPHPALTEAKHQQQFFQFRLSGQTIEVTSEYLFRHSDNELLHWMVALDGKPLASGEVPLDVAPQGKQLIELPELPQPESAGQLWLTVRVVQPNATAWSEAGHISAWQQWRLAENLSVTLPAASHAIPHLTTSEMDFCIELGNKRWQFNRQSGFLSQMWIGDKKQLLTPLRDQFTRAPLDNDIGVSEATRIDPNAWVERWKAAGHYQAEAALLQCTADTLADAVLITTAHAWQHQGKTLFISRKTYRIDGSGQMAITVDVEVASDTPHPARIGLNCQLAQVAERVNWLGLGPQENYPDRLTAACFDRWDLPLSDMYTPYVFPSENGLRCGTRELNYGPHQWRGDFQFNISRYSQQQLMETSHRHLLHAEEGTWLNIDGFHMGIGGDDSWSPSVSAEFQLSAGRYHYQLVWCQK

The Ki is a measure of affinity in units of concentration, obtained from inhibition or displacement. Consider `OC[C@H]1OC[C@@H](O)[C@@H]1O`, for which the Ki/(Km/Kcat) in data set [1] was found to be 240. Moreover, the Ki/Km in data set [2] was found to be 1.6. For the same molecule, affinity on Beta-galactosidase [3] was put at a Ki of 51 mM.
Turning to `C[C@H]1OC[C@H](O)[C@@H](O)[C@H]1O`, the Km/Kcat in data set [4] is 6.7e-05. Besides, the Ki/(Km/Kcat) in [1] was found to be 630000. For the same molecule, in data set [2], the Ki/Km was 1.2.
Turning to `OC[C@H]1OC[C@H](O)[C@@H](O)[C@@H]1O` [1,5-Anhydrosorbitol], affinity at Beta-galactosidase [5] was put at a Ki of 71 mM. The Km/Kcat in data set [4] is 0.21; in data set [6], 0.019. Besides, the Ki/(Km/Kcat) in [1] is 330. Besides, the Ki/Km in data set [2] worked out at 2.2.
On Beta-galactosidase [5], `O[C@@H]1COC[C@H]1O` came in with a Ki of 77 mM. Moreover, in data set [4], the Km/Kcat was 1. Besides, the Ki/(Km/Kcat) in [1] came out at 77. Moreover, the Ki/Km in data set [2] amounted to 5.1.
In turn, `OC[C@H]1OC[C@@H](O)[C@H]1O` showed a Ki at Beta-galactosidase [5] of 1.9 mM. The Ki/(Km/Kcat) in [1] is 1e+08. Besides, the Ki/Km in data set [2] amounted to 39.6.
Take `O[C@H]1[C@H](O)COC[C@@H]1O`: on Beta-galactosidase [5], the inhibition constant Ki came out at 85 mM. The Km/Kcat in data set [4] came out at 1. The Ki/(Km/Kcat) in data set [1] was 85. In data set [2], the Ki/Km came to 15.6.
Take `OC[C@H]1OC[C@H](O)[C@@H](O)[C@H]1O`: the Ki at Beta-galactosidase [5] was 7.4 mM. Also, the Ki/(Km/Kcat) in [1] turned out to be 3.9e+08. In addition, the Ki/Km in data set [2] worked out at 154.

B1: Beta-glucosidase (Prunus avium), Q43014 (protein)
chain: LLLLGFALANTNAARTDPPVVCATLNRTNFDTLFPGFTFGTATASYQLEGAANIDGRGPSIWDAFTHNHPEKITDGSNGDVAIDQYHRYKEDVAIMKDMGLDAYRFSISWSRLLPNGTLSGGINKKGIEYYNNLTNELIRNGIEPLVTLFHWDVPQALEEEYGGVLSPRIVYDFKAYAELCYKEFGDRVKHWTTLNEPYTISNHGYTIGIHAPGRCSSWYDPTCLGGDSGTEPYLVTHNLLLAHAAAVKLYREKYQASQEGVIGITVVSHWFEPASESQKDINASVRALDFMYGWFMDPLTRGDYPQSMRSLVKERLPNFTEEQSKSLIGSYDYIGVNYYSARYASAYPEDYSIPTPPSYLTDAYVNVTTELNGVPIGPQAASDWLYVYPKGLYDLVLYTKNKYNDPIMYITENGMDEFNNPKISLEQALNDSNRIDYCYRHLCYLQEAIIEGANVQGYFAWSLLDNFEWSEGYTVRFGINYVDYDNGLKRHSKLSTHWFKNFLKRSSISKEKIRRCGNNNARARKFVYRI
In general, Km refers to the substrate concentration at which the rate is half of its maximum. On to B1, for which the Km in data set [7] stood at 2.5 mM; in [8], 2.5 mM; in [9], 3.1 mM; in data set [10], 15.7 mM; in data set [11], 3.1 mM; in [12], 15.7 mM.
